In patent US7049301B2, “Quercetin derivatives and their medical usages” (Academy of Military Medical Sciences Institute of …, priority 2001, dated 2006):
Like-named read-outs stand apart in the source and are kept apart here.

How the values were obtained:
adenylate cyclase (AC) = test: Activation of adenylate cyclase (AC) in rat cerebral cortex synaptolemma, cAMP produced; type: biochemical; details: for Amount of cAMP produced: X ± SD; for Activation of AC (in words): rat cerebral cortex synaptolemma
Description: 3.1 Effect on Activities of Adenylate Cyclase (AC) in Rat Cerebral Cortex:
Male Wistar rats weighed 200±20 g are sacrificed by decollation, and cerebral cortex is separated. Synaptolemma is extracted at 4° C. according to the method as described in literature (Rasenick M M et al, Pro. Natl. Acad. Sci. USA, 1980; 77:4628) and suspended in buffer solution, so that a protein concentration of 3˜5 mg/ml is reached. The synaptolemma has to be incubated in advance with the test medicine, as adenylate cyclase (AC) is located on it. The experiment is carried out as follows: portions of 100 μl reaction solution containing certain concentration of test medicine and 15 mmol/L HEPES, pH=7.5, 5 mmol/L MgCl2, 1 mmol/L EGTA, […], 60 mmol/L NaCl, 1 mmol/L aminophylline, 0.5 mg/ml phosphocreatine and 0.14 mg/ml phosphocreatine kinase are respectively dispensed into reaction tubes, followed by addition of 20 μg synaptolemma to each tube. Then, the tubes are immediately put into a water-bath at 30° C. to react for 10 minutes, which reaction is linear during the first 20 minutes. After that, all the reaction tubes are immediately transferred into boiling water and deposited for 3 minutes to terminate the reaction. The amount of cAMP thus produced is measured in an ice-bath environment with cAMP kit, the total reaction volume is 130 μL. The measure is carried out according to the instruction of the kit: various reagents are added and, after the reaction finishes, the tubes are centrifugated at 4000 rpm for 7 minutes. 120 μl supernatant is then pipetted into the measure cup, added afterwards with 1.5 ml anhydrous alcohol, after shaken up, 3.5 ml of scintillation solution is added. Then, the cups are sealed and shaken up, and are left overnight. The values of […] of all samples are determined then by Wallac 1409 liquid scintillation counter. The amount of cAMP produced can be calculated according to the standard curve and CPM. The results are statistically analyzed by ANOVA, and Dunnett's T test is made for inter-group comparison.

[1] = tested on: PC-12 cells damaged by corticosterone; test: Protection of PC-12 cells damaged by corticosterone (MTT); type: cell-based, rat; details: for Absorbance (A): 10^−4 mol/L corticosterone, 48 h, MTT, 570 nm; for Increase of A (%): vs damaged control
Description: 3.2. Protection Effect of Compound of Formula I on PC-12 Cells Damaged by Corticosterone.
PC-12 cells are diluted into a suspension (2×10^5 cells/ml) with DMEM culture solution containing 5% calf serum and 5% horse serum, and then are transplanted into 96-well plates pretreated with polylysine, and cultivated under conditions of 37° C. and 5% CO2 for 2˜3 days. Cells are to grow all over the wells bottom before test. The culture solution is then pipetted away and serum-free DMEM is added containing certain concentration of test medicine and 10^−4 mol/L corticosterone, 10 μl of 5 mg/ml MTT is added 48 hours later to each well, shaking up slightly and, 4 hours later, 100 μl of 10% SDS is added to each well, again shaking up slightly. The plates are then left in the incubator overnight at 37° C.(about 8˜12 hours). After all the dark-blue crystals are dissolved, shaking up slightly and absorbance (A) of each sample at 570 nm is read using microplate reader.

mice = test: Forced swimming test; type: in vivo; details: for Duration of immobility: abdominal administration, last 4 of 6 minutes; for immobility time: oral
Description: (1) The test is carried out according to literature (Arch Int. Pharmacodn. Ther, 1977, 229(2): 327). 30 minutes after abdominal injection or 60 minutes after oral administration, the mice are put into an open glass box (19 cm high and 12 cm of diameter). Water inside the glass box is 8 cm in depth and 22˜23° C. in temperature. The mice are put into the water for 6 minutes and observed by Vidio movement analyzer, the accumulated immobility time of the mice during the last 4 minutes and their activity are analyzed identically as above.

5HT1A receptor = target: T1, 5HT1A receptor (Rattus norvegicus, UniProt P19327); test: 5HT1A receptor test, competition with 3H-8-OH-DPAT on rat hippocampal membrane receptor; type: binding
T1 construct: 50 μl of 1:5 suspension of rat hippocampal membrane receptor; from tissue; host or cells: rat hippocampal membranes
T1 sequence (P19327 1-422): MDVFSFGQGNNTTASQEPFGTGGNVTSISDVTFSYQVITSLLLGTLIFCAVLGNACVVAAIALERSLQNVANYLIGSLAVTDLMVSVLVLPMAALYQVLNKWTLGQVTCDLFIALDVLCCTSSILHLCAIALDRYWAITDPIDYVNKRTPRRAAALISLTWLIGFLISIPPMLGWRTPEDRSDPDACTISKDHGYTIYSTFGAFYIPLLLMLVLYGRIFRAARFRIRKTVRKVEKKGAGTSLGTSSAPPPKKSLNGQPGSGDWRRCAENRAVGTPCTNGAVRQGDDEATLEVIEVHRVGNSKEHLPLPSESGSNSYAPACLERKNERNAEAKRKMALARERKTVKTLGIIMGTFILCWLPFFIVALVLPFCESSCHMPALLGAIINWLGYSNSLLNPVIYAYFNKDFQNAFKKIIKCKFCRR
Description: 20 μl of ^3H-8-OH-DPAT ([…]) and 20 μl of sample solutions of different concentrations are added into 50 μl of 1:5 suspension of rat hippocampal membrane receptor, followed by addition of buffer solution to make up to final volume of 200 μL. Then the above-mentioned suspension is shaken up and incubated in a water-bath at 25° C. for 30 minutes. After quick filtration by suction and washing the membrane receptors, radioactivity value is read by liquid scintillation counter. 20 μl of 5HT […] sulfate (1 mmol) solution is used instead to determine the non-specific conjugation. Buspirone, a partially activating agent of 5HT1A receptor, is used as the positive control. The competitive inhibition rate of the sample to ^3H-8-OH-DPAT is calculated according to the radioactivity value.

Q: `CN(C)CCCN1c2ccccc2CCc2ccccc21` [imipramine] was tested. Which “Amount of cAMP produced” value (adenylate cyclase (AC); 25 μM) did it give?
A: Its value is 15.07 ± 4.91 pmol/mg protein/minute.

Q: And the “Amount of cAMP produced” value (adenylate cyclase (AC); 100 μM)?
A: Its value is 18.53 ± 3.2 pmol/mg protein/minute.

Q: What about the “Amount of cAMP produced” value (adenylate cyclase (AC); 400 μM) of the same molecule?
A: The value was 30.32 pmol/mg protein/minute.

Q: And the “Amount of cAMP produced” value (adenylate cyclase (AC); 1 mM)?
A: The value was 79.79 pmol/mg protein/minute.

Q: And the “Activation of AC (in words)” value (adenylate cyclase (AC))?
A: Its value is “dose-dependently activate AC”.

Q: Which “Amount of cAMP produced” value (adenylate cyclase (AC); 25 μM) does the source give for `O=C1CC2(CCCC2)CC(=O)N1CCCCN1CCN(c2ncccn2)CC1` [buspirone] here?
A: Its value is 19.52 ± 5.46 pmol/mg protein/minute.

Q: And the “Amount of cAMP produced” value (adenylate cyclase (AC); 100 μM)?
A: The value was 19.71 ± 5.57 pmol/mg protein/minute.

Q: And the “Amount of cAMP produced” value (adenylate cyclase (AC); 400 μM)?
A: The value was 24.63 pmol/mg protein/minute.

Q: What about the “Amount of cAMP produced” value (adenylate cyclase (AC); 1 mM) of the same molecule?
A: The value was 33.00 pmol/mg protein/minute.

Q: And the “Activation of AC (in words)” value (adenylate cyclase (AC))?
A: The value was “dose-dependently activate AC”.

Q: What does the source list for `CC1OC(OC[C@H]2O[C@@H](Oc3c(-c4ccc(O)c(O)c4)oc4cc(O)cc(O)c4c3=O)[C@H](O[C@@H]3OC[C@](O)(CO)[C@H]3O)[C@@H](O)[C@@H]2O)C(O)C(O)C1O` (stereo in doubt) [Compound of formula I, quercetin-3-O-β-D-apiofuranosyl-(1→2)-[α-D-rhamnopyranosyl-(1→6)]-β-D-glucopyranoside]?
A: Amount of cAMP produced (adenylate cyclase (AC); 13.5 μM (0.01 mg/ml)): 23.27 ± 4.95 pmol/mg protein/minute; Amount of cAMP produced (adenylate cyclase (AC); 13.5 μM (0.01 mg/ml), listed as compound of formula I): 23.27±4.95 pmol/mg protein/minute; Amount of cAMP produced (adenylate cyclase (AC); 40.5 μM): 4.75 ± 6.33 pmol/mg protein/minute; Amount of cAMP produced (adenylate cyclase (AC); 135 μM): 43.42 pmol/mg protein/minute; AC activation relative to same doses of imipramine and buspirone (adenylate cyclase (AC); 404 μM (0.3 mg/ml)): 2˜3 times; Activation effect on AC (cAMP produced) (adenylate cyclase (AC); 404 μM (0.3 mg/ml)): 68.34±10.45 pmol/mg protein/minute; Amount of cAMP produced (adenylate cyclase (AC); 405 μM): 68.34 pmol/mg protein/minute; Protection effect on PC-12 cells damaged by corticosterone (in words) [1]: strong protection effect; Absorbance (A) ([1]; 4.04 μmol·L^−1): 0.74 ± 0.14; Increase of A (%) ([1]; 4.04 μmol·L^−1): 208.3%; Absorbance (A) ([1]; 14.38 μmol·L^−1): 0.84 ± 0.08; Increase of A (%) ([1]; 14.38 μmol·L^−1): 250.0%; Absorbance (A) ([1]; 40.43 μmol·L^−1): 0.86 ± 0.10; Increase of A (%) ([1]; 40.43 μmol·L^−1): 258.3%; Absorbance (A) ([1]; 134.77 μmol·L^−1): 0.77 ± 0.11; Increase of A (%) ([1]; 134.77 μmol·L^−1): 220.8%; Absorbance (A) ([1]; 404.31 μmol·L^−1): 0.61 ± 0.16; Increase of A (%) ([1]; 404.31 μmol·L^−1): 154.2%; Duration of immobility (mice; 0.31 mg/kg): 148.69 ± 30.81 s; Duration of immobility (mice; 0.31 mg/kg, listed as compound of formula I): shorten the immobility time; Duration of immobility (mice; 1.25 mg/kg): 149.94 ± 34.87 s; Duration of immobility (mice; 5.00 mg/kg): 134.38 ± 40.99 s; immobility time (mice; 3.75 mg/kg): 95.2 ± 47.4 s; immobility time (mice; 7.5 mg/kg): 62.2 ± 45.9 s; immobility time (mice; 7.5 mg/kg, listed as compound of formula I): shorten the immobility time; immobility time (mice; 15 mg/kg): 53.6 ± 50.8 s; immobility time (mice; 30 mg/kg): 111.5 ± 52.9 s; IC50 (5HT1A receptor): ~50 pM

Q: Which IC50 (5HT1A receptor; competitive inhibition of 3H-8-OH-DPAT, rat hippocampal membrane, 25° C., 30 minutes, read-out: IC50) does the source give for `CCOc1cc(OCC)c2c(=O)c(OC3OC(COC4OC(C)C(O)C(O)C4O)C(O)C(O)C3OC3OCC(O)(CO)C3O)c(-c3ccc(OCC)c(OCC)c3)oc2c1` [5,7,3′,4′,-tetraethoxyl flavonol-3-O-β-D-apiofuranosyl-(1→2)-[α-D-rhamnopyranosyl-(1→6)]-β-D-glucopyranoside] here?
A: The IC50 was about 200 pM.
